According to patent US9340590B2 (priority 2011, dated 2016):
Read-outs that look alike come from different tables or passages of the source. Positions of bridges follow the written chain, without caps; N, C: chain ends. Non-standard residues stand in square brackets, D forms with d. Residues, ends and D or L forms follow the SMILES beside them. Phe(4-COOH) = N[C@@H](Cc1ccc(C(=O)O)cc1)C(=O)O; Arg(Me2s) = CN=C(NC)NCCC[C@H](N)C(=O)O; NMeF = CN[C@@H](Cc1ccccc1)C(=O)O; 2Pal = N[C@@H](Cc1ccccn1)C(=O)O

Key:
Assay in all cases: cell-based
[1] = biological target: hNav1.3 (Homo sapiens, UniProt Q9NY46); conditions: IonWorks Quattro, use, […], read-out: IWQ Use Nav1.3
hNav1.3, sequence (Q9NY46 whole entry, looked up): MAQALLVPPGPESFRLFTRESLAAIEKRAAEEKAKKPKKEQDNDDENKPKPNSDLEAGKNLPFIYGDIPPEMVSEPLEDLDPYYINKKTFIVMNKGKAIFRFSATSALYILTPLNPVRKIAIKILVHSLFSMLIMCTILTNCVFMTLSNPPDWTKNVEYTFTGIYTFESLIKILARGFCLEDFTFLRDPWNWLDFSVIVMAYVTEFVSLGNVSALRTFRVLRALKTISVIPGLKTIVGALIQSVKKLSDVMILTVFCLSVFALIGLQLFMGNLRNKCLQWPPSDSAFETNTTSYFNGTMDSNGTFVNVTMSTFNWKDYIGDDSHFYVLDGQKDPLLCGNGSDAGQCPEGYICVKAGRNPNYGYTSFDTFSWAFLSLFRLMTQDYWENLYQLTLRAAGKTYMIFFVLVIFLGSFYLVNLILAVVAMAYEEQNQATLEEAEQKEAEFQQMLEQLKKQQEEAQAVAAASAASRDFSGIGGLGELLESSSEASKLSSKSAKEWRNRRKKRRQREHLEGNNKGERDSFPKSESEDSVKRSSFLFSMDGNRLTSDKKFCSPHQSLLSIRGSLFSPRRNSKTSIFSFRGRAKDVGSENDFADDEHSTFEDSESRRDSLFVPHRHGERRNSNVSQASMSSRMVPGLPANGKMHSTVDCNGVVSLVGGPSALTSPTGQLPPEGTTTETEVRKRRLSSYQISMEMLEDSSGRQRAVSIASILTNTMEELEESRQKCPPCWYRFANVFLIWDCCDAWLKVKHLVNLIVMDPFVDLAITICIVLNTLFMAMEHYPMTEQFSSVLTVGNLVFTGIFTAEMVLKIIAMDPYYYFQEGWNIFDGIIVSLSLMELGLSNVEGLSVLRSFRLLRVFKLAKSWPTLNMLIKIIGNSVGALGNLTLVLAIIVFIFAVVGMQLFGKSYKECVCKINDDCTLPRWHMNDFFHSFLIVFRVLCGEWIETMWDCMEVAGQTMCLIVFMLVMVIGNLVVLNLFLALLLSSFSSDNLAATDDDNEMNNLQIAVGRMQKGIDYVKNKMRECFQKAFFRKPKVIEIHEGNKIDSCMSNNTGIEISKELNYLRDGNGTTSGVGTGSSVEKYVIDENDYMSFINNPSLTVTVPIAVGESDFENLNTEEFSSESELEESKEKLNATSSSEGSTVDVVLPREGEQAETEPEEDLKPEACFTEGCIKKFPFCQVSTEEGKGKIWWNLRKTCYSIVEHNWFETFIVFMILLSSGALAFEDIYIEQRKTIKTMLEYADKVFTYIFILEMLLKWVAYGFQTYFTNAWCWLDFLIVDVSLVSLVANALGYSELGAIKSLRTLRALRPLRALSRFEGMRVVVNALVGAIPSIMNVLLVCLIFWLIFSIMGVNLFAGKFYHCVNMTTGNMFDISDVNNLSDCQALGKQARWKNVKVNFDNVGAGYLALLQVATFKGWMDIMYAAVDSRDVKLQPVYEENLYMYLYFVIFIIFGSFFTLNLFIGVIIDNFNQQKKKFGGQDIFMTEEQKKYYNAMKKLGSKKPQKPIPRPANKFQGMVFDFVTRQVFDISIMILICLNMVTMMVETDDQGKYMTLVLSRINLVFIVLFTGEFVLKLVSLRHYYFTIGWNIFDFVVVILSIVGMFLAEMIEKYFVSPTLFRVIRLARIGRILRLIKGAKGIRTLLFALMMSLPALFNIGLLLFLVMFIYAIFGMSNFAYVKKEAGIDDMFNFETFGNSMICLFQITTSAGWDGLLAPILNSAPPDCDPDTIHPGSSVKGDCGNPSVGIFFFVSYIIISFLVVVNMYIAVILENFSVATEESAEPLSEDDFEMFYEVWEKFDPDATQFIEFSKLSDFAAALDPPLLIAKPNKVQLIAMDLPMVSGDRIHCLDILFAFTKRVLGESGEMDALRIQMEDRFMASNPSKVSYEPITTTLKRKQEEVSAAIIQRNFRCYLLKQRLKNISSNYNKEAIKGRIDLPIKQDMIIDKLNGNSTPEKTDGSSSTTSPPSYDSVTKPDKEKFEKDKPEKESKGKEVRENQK

[2] = biological target: hNav1.7 (Homo sapiens, UniProt Q15858); assay type: cell-based; conditions: IonWorks Quattro, use, […], read-out: IWQ Use Nav1.7
hNav1.7, sequence (Q15858 whole entry, looked up): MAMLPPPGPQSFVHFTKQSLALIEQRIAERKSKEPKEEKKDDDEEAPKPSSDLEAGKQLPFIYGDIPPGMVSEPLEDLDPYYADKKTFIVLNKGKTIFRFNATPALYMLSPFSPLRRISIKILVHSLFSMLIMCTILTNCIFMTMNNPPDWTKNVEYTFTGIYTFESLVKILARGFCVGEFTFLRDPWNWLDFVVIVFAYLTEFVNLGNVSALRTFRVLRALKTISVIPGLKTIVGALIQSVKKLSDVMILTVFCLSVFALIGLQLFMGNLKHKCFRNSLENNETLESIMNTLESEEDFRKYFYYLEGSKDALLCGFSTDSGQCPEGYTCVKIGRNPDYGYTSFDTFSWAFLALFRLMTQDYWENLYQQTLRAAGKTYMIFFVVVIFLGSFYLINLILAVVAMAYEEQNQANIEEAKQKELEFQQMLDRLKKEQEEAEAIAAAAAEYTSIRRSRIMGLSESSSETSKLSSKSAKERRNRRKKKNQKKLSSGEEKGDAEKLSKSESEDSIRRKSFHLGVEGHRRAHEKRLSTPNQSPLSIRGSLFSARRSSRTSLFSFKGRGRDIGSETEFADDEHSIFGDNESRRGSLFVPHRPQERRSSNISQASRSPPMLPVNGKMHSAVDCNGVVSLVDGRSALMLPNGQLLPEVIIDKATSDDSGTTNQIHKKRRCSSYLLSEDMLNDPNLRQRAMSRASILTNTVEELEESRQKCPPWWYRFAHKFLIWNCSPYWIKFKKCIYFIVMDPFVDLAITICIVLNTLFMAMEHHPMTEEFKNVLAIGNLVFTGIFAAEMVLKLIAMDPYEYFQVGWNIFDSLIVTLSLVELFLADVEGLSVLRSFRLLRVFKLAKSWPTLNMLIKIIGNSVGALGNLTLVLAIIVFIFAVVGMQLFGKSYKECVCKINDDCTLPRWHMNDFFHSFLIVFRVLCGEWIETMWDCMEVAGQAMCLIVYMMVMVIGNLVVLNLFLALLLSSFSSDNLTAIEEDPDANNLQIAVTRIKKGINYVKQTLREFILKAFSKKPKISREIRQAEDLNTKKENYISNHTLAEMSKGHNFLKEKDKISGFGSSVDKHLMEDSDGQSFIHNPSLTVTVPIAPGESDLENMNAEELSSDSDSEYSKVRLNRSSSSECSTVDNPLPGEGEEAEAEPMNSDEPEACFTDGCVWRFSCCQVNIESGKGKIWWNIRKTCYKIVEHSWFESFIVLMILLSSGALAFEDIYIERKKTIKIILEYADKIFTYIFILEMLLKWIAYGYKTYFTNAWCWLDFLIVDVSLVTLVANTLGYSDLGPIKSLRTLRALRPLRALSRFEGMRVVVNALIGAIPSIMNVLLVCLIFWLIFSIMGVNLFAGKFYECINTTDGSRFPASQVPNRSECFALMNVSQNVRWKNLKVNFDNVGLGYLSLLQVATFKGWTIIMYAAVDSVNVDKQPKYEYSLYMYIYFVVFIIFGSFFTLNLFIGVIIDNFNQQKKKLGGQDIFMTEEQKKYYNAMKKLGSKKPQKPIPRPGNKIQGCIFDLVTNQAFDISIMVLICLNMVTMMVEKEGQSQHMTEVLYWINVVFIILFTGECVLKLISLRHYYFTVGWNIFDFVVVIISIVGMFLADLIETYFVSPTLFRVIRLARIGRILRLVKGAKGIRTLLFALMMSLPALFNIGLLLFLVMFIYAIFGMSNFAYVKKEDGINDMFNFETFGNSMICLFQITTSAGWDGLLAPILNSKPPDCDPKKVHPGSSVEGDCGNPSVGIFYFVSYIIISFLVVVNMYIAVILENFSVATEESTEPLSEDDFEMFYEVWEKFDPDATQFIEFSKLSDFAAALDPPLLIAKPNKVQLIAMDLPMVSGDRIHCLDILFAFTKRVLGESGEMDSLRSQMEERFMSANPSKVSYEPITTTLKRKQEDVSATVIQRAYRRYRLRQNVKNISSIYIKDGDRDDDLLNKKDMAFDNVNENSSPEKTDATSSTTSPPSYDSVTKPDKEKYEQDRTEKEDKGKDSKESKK

[3] = biological target: hNav1.5 (Homo sapiens, UniProt Q14524); conditions: IonWorks Quattro, use, […], read-out: IWQ Use Nav1.5

Compound	IC50 ([1]; Table 24) [µM]	IC50 ([2]; Table 24) [µM]	IC50 ([3]; Table 24) [µM]	IC50 ([1]; Table 25) [µM]	IC50 ([2]; Table 25) [µM]	IC50 ([3]; Table 25) [µM]
CC[C@H](C)[C@@H]1NC(=O)[C@@H]2CSSC[C@@H]3NC(=O)[C@H](C(C)C)NC(=O)[C@H](CC(C)C)NC(=O)[C@H](CC(N)=O)NC(=O)[C@@H]4CCCN4C(=O)[C@H](CCCNC(=N)N)NC(=O)[C@H](CSSC[C@H](NC(=O)[C@@H](N)CC(=O)O)C(=O)N[C@@H](CC(C)C)C(=O)NCC(=O)N[C@@H](Cc4ccccc4)C(=O)N[C@@H](CCSC)C(=O)N[C@@H](CCCNC(=N)N)C(=O)N[C@@H](CCCCN)C(=O)N2)NC(=O)[C@H](CSSC[C@@H](C(=O)N[C@@H](CCCCN)C(=O)N[C@@H](Cc2ccc(O)cc2)C(=O)N[C@H](C(=O)N[C@@H](Cc2ccccc2)C(N)=O)C(C)C)NC(=O)[C@H](Cc2ccc(C(=O)O)cc2)NC(=O)[C@H](CCCCN)NC(=O)[C@H](Cc2c[nH]cn2)NC(=O)[C@H]([C@@H](C)O)NC(=O)[C@H](CCCNC(=N)N)NC(=O)[C@H](CO)NC3=O)NC(=O)[C@H](CCCCN)NC(=O)[C@H](CC(=O)O)NC(=O)[C@H](CC(N)=O)NC(=O)[C@H](CC(=O)O)NC(=O)[C@@H]2CCCN2C1=O [compound 363] (H-DCLGFMRKCIPDNDKCCRPNLVCSRTHK[Phe(4-COOH)]CKYVF-NH2; disulfide 2-17, 9-23, 16-30)	14.9	15	18.8	–	–	–
CC[C@H](C)[C@@H]1NC(=O)[C@@H]2CSSC[C@@H]3NC(=O)[C@H](C(C)C)NC(=O)[C@H](CC(C)C)NC(=O)[C@H](CC(N)=O)NC(=O)[C@@H]4CCCN4C(=O)[C@H](CCCNC(=N)N)NC(=O)[C@H](CSSC[C@H](NC(=O)[C@@H](N)CC(=O)O)C(=O)N[C@@H](CC(C)C)C(=O)NCC(=O)N[C@@H](Cc4ccccc4)C(=O)N[C@@H](CCSC)C(=O)N[C@@H](CCCNC(=N)N)C(=O)N[C@@H](CCCCN)C(=O)N2)NC(=O)[C@H](CSSC[C@@H](C(=O)N[C@@H](Cc2ccccn2)C(=O)N[C@@H](Cc2ccc(O)cc2)C(=O)N[C@H](C(=O)N[C@@H](Cc2ccccc2)C(N)=O)C(C)C)NC(=O)[C@H](Cc2c[nH]c4ccccc24)NC(=O)[C@H](CCCCN)NC(=O)[C@H](Cc2c[nH]cn2)NC(=O)[C@H]([C@@H](C)O)NC(=O)[C@H](CCCNC(=N)N)NC(=O)[C@H](CO)NC3=O)NC(=O)[C@H](CCCCN)NC(=O)[C@H](CC(=O)O)NC(=O)[C@H](CC(N)=O)NC(=O)[C@H](CC(=O)O)NC(=O)[C@@H]2CCCN2C1=O [compound 364] (H-DCLGFMRKCIPDNDKCCRPNLVCSRTHKWC[2Pal]YVF-NH2; disulfide 2-17, 9-23, 16-30)	–	–	–	16.9	11	9.49
CC[C@H](C)[C@@H]1NC(=O)[C@@H]2CSSC[C@@H]3NC(=O)[C@H](C(C)C)NC(=O)[C@H](CC(C)C)NC(=O)[C@H](CC(N)=O)NC(=O)[C@@H]4CCCN4C(=O)[C@H](CCCNC(=N)N)NC(=O)[C@H](CSSC[C@H](NC(=O)[C@@H](N)CC(=O)O)C(=O)N[C@@H](CC(C)C)C(=O)NCC(=O)N[C@@H](Cc4ccccc4)C(=O)N[C@@H](CCSC)C(=O)N[C@@H](CCCNC(=N)N)C(=O)N[C@@H](CCCCN)C(=O)N2)NC(=O)[C@H](CSSC[C@@H](C(=O)N[C@@H](CCCNC(=NC)NC)C(=O)N[C@@H](Cc2ccc(O)cc2)C(=O)N[C@H](C(=O)N[C@@H](Cc2ccccc2)C(N)=O)C(C)C)NC(=O)[C@H](Cc2c[nH]c4ccccc24)NC(=O)[C@H](CCCCN)NC(=O)[C@H](Cc2c[nH]cn2)NC(=O)[C@H]([C@@H](C)O)NC(=O)[C@H](CCCNC(=N)N)NC(=O)[C@H](CO)NC3=O)NC(=O)[C@H](CCCCN)NC(=O)[C@H](CC(=O)O)NC(=O)[C@H](CC(N)=O)NC(=O)[C@H](CC(=O)O)NC(=O)[C@@H]2CCCN2C1=O [compound 365] (H-DCLGFMRKCIPDNDKCCRPNLVCSRTHKWC[Arg(Me2s)]YVF-NH2; disulfide 2-17, 9-23, 16-30)	–	–	–	4.55	4.15	14.2
CC[C@H](C)[C@@H]1NC(=O)[C@@H]2CSSC[C@@H]3NC(=O)[C@H](C(C)C)NC(=O)[C@H](CC(C)C)NC(=O)[C@H](CC(N)=O)NC(=O)[C@@H]4CCCN4C(=O)[C@H](CCCNC(=N)N)NC(=O)[C@H](CSSC[C@H](NC(=O)[C@@H](N)CC(=O)O)C(=O)N[C@@H](CC(C)C)C(=O)NCC(=O)N[C@@H](Cc4ccccc4)C(=O)N[C@@H](CCSC)C(=O)N[C@@H](CCCNC(=N)N)C(=O)N[C@@H](CCCCN)C(=O)N2)NC(=O)[C@H](CSSC[C@@H](C(=O)N[C@@H](CCCCN)C(=O)N[C@@H](CCC(N)=O)C(=O)N[C@H](C(=O)N[C@@H](Cc2ccccc2)C(N)=O)C(C)C)NC(=O)[C@H](Cc2c[nH]c4ccccc24)NC(=O)[C@H](CCCCN)NC(=O)[C@H](Cc2c[nH]cn2)NC(=O)[C@H]([C@@H](C)O)NC(=O)[C@H](CCCNC(=N)N)NC(=O)[C@H](CO)NC3=O)NC(=O)[C@H](CCCCN)NC(=O)[C@H](CC(=O)O)NC(=O)[C@H](CC(N)=O)NC(=O)[C@H](CC(=O)O)NC(=O)[C@@H]2CCCN2C1=O [compound 366] (H-DCLGFMRKCIPDNDKCCRPNLVCSRTHKWCKQVF-NH2; disulfide 2-17, 9-23, 16-30)	–	–	–	2.39	4.87	21
CC[C@H](C)[C@H](NC(=O)[C@H](CCCCN)NC(=O)[C@@H]1CSSC[C@@H]2NC(=O)[C@H](CCCCN)NC(=O)[C@H](CC(=O)O)NC(=O)[C@H](CC(N)=O)NC(=O)[C@H](CC(=O)O)NC(=O)[C@@H]3CCCN3C(=O)[C@H]([C@@H](C)CC)NC(=O)[C@@H]3CSSC[C@H](NC(=O)[C@H](C(C)C)NC(=O)[C@H](CC(C)C)NC(=O)[C@H](CC(N)=O)NC(=O)[C@@H]4CCCN4C(=O)[C@H](CCCNC(=N)N)NC(=O)[C@H](CSSC[C@H](NC(=O)[C@@H](N)CC(=O)O)C(=O)N[C@@H](CC(C)C)C(=O)NCC(=O)N[C@@H](Cc4ccccc4)C(=O)N[C@@H](CCSC)C(=O)N[C@@H](CCCNC(=N)N)C(=O)N[C@@H](CCCCN)C(=O)N3)NC2=O)C(=O)N[C@@H](CO)C(=O)N[C@@H](CCCNC(=N)N)C(=O)N[C@@H]([C@@H](C)O)C(=O)N[C@@H](Cc2c[nH]cn2)C(=O)N[C@@H](CCCCN)C(=O)N[C@@H](Cc2c[nH]c3ccccc23)C(=O)N1)C(=O)N[C@H](C(=O)N[C@@H](Cc1ccccc1)C(N)=O)C(C)C [compound 367] (H-DCLGFMRKCIPDNDKCCRPNLVCSRTHKWCKIVF-NH2; disulfide 2-17, 9-23, 16-30)	–	–	–	0.06	0.07	8.71
CC[C@H](C)[C@@H]1NC(=O)[C@@H]2CSSC[C@@H]3NC(=O)[C@H](C(C)C)NC(=O)[C@H](CC(C)C)NC(=O)[C@H](CC(N)=O)NC(=O)[C@@H]4CCCN4C(=O)[C@H](CCCNC(=N)N)NC(=O)[C@H](CSSC[C@H](NC(=O)[C@@H](N)CC(=O)O)C(=O)N[C@@H](CC(C)C)C(=O)NCC(=O)N[C@@H](Cc4ccccc4)C(=O)N[C@@H](CCSC)C(=O)N[C@@H](CCCNC(=N)N)C(=O)N[C@@H](CCCCN)C(=O)N2)NC(=O)[C@H](CSSC[C@@H](C(=O)N[C@@H](CCCCN)C(=O)N[C@@H](CCSC)C(=O)N[C@H](C(=O)N[C@@H](Cc2ccccc2)C(N)=O)C(C)C)NC(=O)[C@H](Cc2c[nH]c4ccccc24)NC(=O)[C@H](CCCCN)NC(=O)[C@H](Cc2c[nH]cn2)NC(=O)[C@H]([C@@H](C)O)NC(=O)[C@H](CCCNC(=N)N)NC(=O)[C@H](CO)NC3=O)NC(=O)[C@H](CCCCN)NC(=O)[C@H](CC(=O)O)NC(=O)[C@H](CC(N)=O)NC(=O)[C@H](CC(=O)O)NC(=O)[C@@H]2CCCN2C1=O [compound 368] (H-DCLGFMRKCIPDNDKCCRPNLVCSRTHKWCKMVF-NH2; disulfide 2-17, 9-23, 16-30)	–	–	–	0.14	0.35	6.21
CC[C@H](C)[C@@H]1NC(=O)[C@@H]2CSSC[C@@H]3NC(=O)[C@H](C(C)C)NC(=O)[C@H](CC(C)C)NC(=O)[C@H](CC(N)=O)NC(=O)[C@@H]4CCCN4C(=O)[C@H](CCCNC(=N)N)NC(=O)[C@H](CSSC[C@H](NC(=O)[C@@H](N)CC(=O)O)C(=O)N[C@@H](CC(C)C)C(=O)NCC(=O)N[C@@H](Cc4ccccc4)C(=O)N[C@@H](CCSC)C(=O)N[C@@H](CCCNC(=N)N)C(=O)N[C@@H](CCCCN)C(=O)N2)NC(=O)[C@H](CSSC[C@@H](C(=O)N[C@@H](CCCCN)C(=O)N[C@H](C(=O)N[C@H](C(=O)N[C@@H](Cc2ccccc2)C(N)=O)C(C)C)[C@@H](C)O)NC(=O)[C@H](Cc2c[nH]c4ccccc24)NC(=O)[C@H](CCCCN)NC(=O)[C@H](Cc2c[nH]cn2)NC(=O)[C@H]([C@@H](C)O)NC(=O)[C@H](CCCNC(=N)N)NC(=O)[C@H](CO)NC3=O)NC(=O)[C@H](CCCCN)NC(=O)[C@H](CC(=O)O)NC(=O)[C@H](CC(N)=O)NC(=O)[C@H](CC(=O)O)NC(=O)[C@@H]2CCCN2C1=O [compound 369] (H-DCLGFMRKCIPDNDKCCRPNLVCSRTHKWCKTVF-NH2; disulfide 2-17, 9-23, 16-30)	–	–	–	3.29	3.54	11.1
CC[C@H](C)[C@@H]1NC(=O)[C@@H]2CSSC[C@@H]3NC(=O)[C@H](C(C)C)NC(=O)[C@H](CC(C)C)NC(=O)[C@H](CC(N)=O)NC(=O)[C@@H]4CCCN4C(=O)[C@H](CCCNC(=N)N)NC(=O)[C@H](CSSC[C@H](NC(=O)[C@@H](N)CC(=O)O)C(=O)N[C@@H](CC(C)C)C(=O)NCC(=O)N[C@@H](Cc4ccccc4)C(=O)N[C@@H](CCSC)C(=O)N[C@@H](CCCNC(=N)N)C(=O)N[C@@H](CCCCN)C(=O)N2)NC(=O)[C@H](CSSC[C@@H](C(=O)N[C@@H](CCCCN)C(=O)N(C)[C@@H](Cc2ccccc2)C(=O)N[C@H](C(=O)N[C@@H](Cc2ccccc2)C(N)=O)C(C)C)NC(=O)[C@H](Cc2c[nH]c4ccccc24)NC(=O)[C@H](CCCCN)NC(=O)[C@H](Cc2c[nH]cn2)NC(=O)[C@H]([C@@H](C)O)NC(=O)[C@H](CCCNC(=N)N)NC(=O)[C@H](CO)NC3=O)NC(=O)[C@H](CCCCN)NC(=O)[C@H](CC(=O)O)NC(=O)[C@H](CC(N)=O)NC(=O)[C@H](CC(=O)O)NC(=O)[C@@H]2CCCN2C1=O [compound 370] (H-DCLGFMRKCIPDNDKCCRPNLVCSRTHKWCK[NMeF]VF-NH2; disulfide 2-17, 9-23, 16-30)	–	–	–	> 5	> 5	> 5
